As a reminder, the IC50 is the concentration that inhibits the measured activity by half.

Here are results for 22 molecules from US11564928B1, “Cannabinoid receptor type 2 (CB2) modulators and uses thereof” (Teon Therapeutics, Inc., priority 2020, dated 2023).

Experiment [1] deals with human recombinant CB1R (Homo sapiens (Human), UniProt P21554). The experiment is described as follows: CB1 receptor binding assay ([3H]CP-55,940 displacement, HEK-293 membranes). The protocol: The compounds were evaluated in CB1R and CB2R binding assays using membranes from HEK-293 cells transfected with cDNAs encoding the human recombinant CB1R (Bmax=[…] protein) and human recombinant CB2R (Bmax=[…] protein) (Perkin-Elmer). […]. Compounds were tested following the procedure described by the cell membrane manufacturer. […] CB2R binding assays were carried out with two different buffers: incubation buffer (Tris-HCl, 50 mM; MgCl2, 5 mM; CaCl2 1 mM; BSA, 0.2% at pH 7.4) and washing buffer (Tris-HCl, 50 mM; NaCl 500 mM; BSA, 0.1% at pH 7.4). […] Assays were performed in duplicate and incubated for […] at 37° C. After the incubation, the assay mixture is filtered through 96 GF/C filter plates (Perkin Elmer #6005174) using Perkin Elmer Filtermate Harvester, and then washed four times with ice-cold washing buffer. The filters are dried for 1 hour at 50° C. and [^3H] trapped on filter counted for radioactivity in Perkin Elmer Microscint 20 cocktail (#6013329) using Perkin Elmer MicroBeta2 Reader. […] Data are analyzed and IC50 is calculated using GraphPad Prism 5 and the model “log(inhibitor) vs. response—Variable slope”. The binding affinity of the compounds is Determined by Using the Cheng and Prusoff Equation Ki=IC50/(1+[radioligand]/Kd).
Chain of human recombinant CB1R (P21554 whole entry): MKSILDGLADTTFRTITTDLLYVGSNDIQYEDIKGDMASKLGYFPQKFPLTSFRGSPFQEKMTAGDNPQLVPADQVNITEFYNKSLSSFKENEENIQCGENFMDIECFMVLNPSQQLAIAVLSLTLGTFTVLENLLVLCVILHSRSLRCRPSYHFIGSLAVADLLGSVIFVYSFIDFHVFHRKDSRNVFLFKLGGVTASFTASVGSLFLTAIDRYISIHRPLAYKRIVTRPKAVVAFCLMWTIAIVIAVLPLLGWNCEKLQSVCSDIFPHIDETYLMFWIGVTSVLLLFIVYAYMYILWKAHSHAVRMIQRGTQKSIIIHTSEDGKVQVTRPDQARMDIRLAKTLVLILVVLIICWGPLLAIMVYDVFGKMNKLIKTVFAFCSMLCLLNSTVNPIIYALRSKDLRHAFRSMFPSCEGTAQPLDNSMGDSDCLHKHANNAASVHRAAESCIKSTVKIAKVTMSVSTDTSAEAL

For experiment [2], the target named is human CB2 receptor (Homo sapiens (Human), UniProt P34972). The experiment is described as follows: CB2 receptor binding assay ([3H]CP-55,940 displacement, HEK-293 membranes). As for the experimental part:
The compounds were evaluated in CB1R and CB2R binding assays using membranes from HEK-293 cells transfected with cDNAs encoding the human recombinant CB1R (Bmax=[…] protein) and human recombinant CB2R (Bmax=[…] protein) (Perkin-Elmer). […] Compounds were tested following the procedure described by the cell membrane manufacturer. […] CB2R binding assays were carried out with two different buffers: incubation buffer (Tris-HCl, 50 mM; MgCl2, 5 mM; CaCl2 1 mM; BSA, 0.2% at pH 7.4) and washing buffer (Tris-HCl, 50 mM; NaCl 500 mM; BSA, 0.1% at pH 7.4). […] Assays were performed in duplicate and incubated for […] at 37° C. […] Data are analyzed and IC50 is calculated using GraphPad Prism 5 and the model “log(inhibitor) vs. response—Variable slope”. The binding affinity of the compounds is Determined by Using the Cheng and Prusoff Equation Ki=IC50/(1+[radioligand]/Kd).

The mark [3] stands for this setting: membranes of HEK-293 cells with human recombinant CB1R, [3H]CP-55,940, read-out: CB1 IC50.
The mark [4] stands for this setting: membranes of HEK-293 cells with human recombinant CB2R, [3H]CP-55,940, read-out: CB2 IC50.
The mark [5] stands for this setting: membranes of HEK-293 cells with human recombinant CB2R, [3H]CP-55,940, class symbols, read-out: CB2 IC50.
[6] abbreviates: membranes of HEK-293 cells with human recombinant CB1R, [3H]CP-55,940, class symbols, read-out: CB1 IC50.

Molecules are shown by their SMILES. Where two headings read alike, the source gives them in different places.

Chain of human CB2 receptor (P34972 whole entry): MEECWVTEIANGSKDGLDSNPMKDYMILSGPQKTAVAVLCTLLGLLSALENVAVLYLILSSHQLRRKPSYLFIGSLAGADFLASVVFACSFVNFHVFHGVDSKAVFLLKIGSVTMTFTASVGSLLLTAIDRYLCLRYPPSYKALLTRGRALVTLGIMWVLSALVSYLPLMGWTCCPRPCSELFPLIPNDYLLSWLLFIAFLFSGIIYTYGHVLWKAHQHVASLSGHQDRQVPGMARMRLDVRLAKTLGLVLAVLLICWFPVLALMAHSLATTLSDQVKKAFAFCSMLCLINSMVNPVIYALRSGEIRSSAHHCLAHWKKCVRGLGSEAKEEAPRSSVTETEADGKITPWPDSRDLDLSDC

As for `C[C@H](NC(=O)c1cc2cc(Br)cnc2n(Cc2ccc(F)cc2)c1=O)c1ccc(F)cc1` [Compound 90, (S)-6-bromo-1-(4-fluorobenzyl)-N-(1-(4-fluorophenyl)ethyl)-2-oxo-1,2-dihydro-1,8-naphthyridine-3-carboxamide], the IC50 came out at 348 nM in experiment [1] (setting [3]) and 11 nM in experiment [2] (setting [4]).
As to `O=C(NC1CC2(CCC2)C1)c1cc2cc(Br)cnc2n(Cc2ccc(F)cc2)c1=O` [Compound 81, 6-bromo-1-(4-fluorobenzyl)-2-oxo-N-(spiro[3.3]heptan-2-yl)-1,2-dihydro-1,8-naphthyridine-3-carboxamide], the IC50 is above 10000 nM in experiment [1] (setting [3]) and 5 nM in experiment [2] (setting [4]).
As to `COc1ccc(-c2cnc3c(c2)c(OC)c(C(=O)NC24CC(C2)C4)c(=O)n3CCN2CCOCC2)cc1` [Compound 177, N-(bicyclo[1.1.1]pentan-1-yl)-4-methoxy-6-(4-methoxyphenyl)-1-(2-morpholinoethyl)-2-oxo-1,2-dihydro-1,8-naphthyridine-3-carboxamide], the IC50 in experiment [2] (setting [5]) was above 1000 nM.
For `CC(C)c1cnc2c(c1)cc(C(=O)NC1(c3ccc(C#N)cc3)CC1)c(=O)n2Cc1ccc(F)cc1` [Compound 86, N-(1-(4-cyanophenyl)cyclopropyl)-1-(4-fluorobenzyl)-6-isopropyl-2-oxo-1,2-dihydro-1,8-naphthyridine-3-carboxamide], the IC50 is above 1000 nM in experiment [1] (setting [6]) and below 100 nM in experiment [2] (setting [5]).
For `CC(NC(=O)c1c(O)c2cc(-c3ccc(C#N)cn3)cnc2n(Cc2ccc(F)cc2)c1=O)c1ccc(C#N)cc1` (centres unmarked) [Compound 24, N-(1-(4-cyanophenyl)ethyl)-6-(5-cyanopyridin-2-yl)-1-(4-fluorobenzyl)-4-hydroxy-2-oxo-1,2-dihydro-1,8-naphthyridine-3-carboxamide] the same measures were above 1000 nM and above 1000 nM.
For `COc1ccc(-c2cnc3c(c2)c(C)c(C(=O)NC2CC4(CCC4)C2)c(=O)n3CCN2CCOCC2)cc1` [Compound 74, 6-(4-methoxyphenyl)-4-methyl-1-(2-morpholinoethyl)-2-oxo-N-(spiro[3.3]heptan-2-yl)-1,2-dihydro-1,8-naphthyridine-3-carboxamide] the same measures were above 1000 nM and above 1000 nM.
As to `CC(C)(CO)NC(=O)c1c(O)c2cc(-c3ccc(F)cc3)cnc2n(CCN2CCOCC2)c1=O` [Compound 117, 6-(4-fluorophenyl)-4-hydroxy-N-(1-hydroxy-2-methylpropan-2-yl)-1-(2-morpholinoethyl)-2-oxo-1,2-dihydro-1,8-naphthyridine-3-carboxamide], the IC50 in experiment [1] (setting [6]) was above 1000 nM; in experiment [2], 100 to 999 nM.
As for `CC1(C)CC(NC(=O)c2c(O)c3cc(-c4ccc(F)cc4)cnc3n(CCN3CCOCC3)c2=O)C1` [Compound 111, N-(3,3-dimethylcyclobutyl)-6-(4-fluorophenyl)-4-hydroxy-1-(2-morpholinoethyl)-2-oxo-1,2-dihydro-1,8-naphthyridine-3-carboxamide], the IC50 was 100 to 999 nM in experiment [1] and below 100 nM in experiment [2] (setting [5]).
In the case of `O=C(NC1CC2(CC2)C1)c1c(O)c2cccnc2n(Cc2ccc(F)cc2)c1=O` [Compound 142, 1-[(4-fluorophenyl)methyl]-4-hydroxy-2-oxo-N-spiro[2.3]hexan-5-yl-1,8-naphthyridine-3-carboxamide], the IC50 in experiment [1] (setting [6]) was above 1000 nM; in experiment [2], 100 to 999 nM.
For the molecule `CC(C)c1cnc2c(c1)cc(C(=O)NC13CC(C1)C3)c(=O)n2Cc1ccc(F)cc1` [Compound 84, N-(bicyclo[1.1.1]pentan-1-yl)-1-(4-fluorobenzyl)-6-isopropyl-2-oxo-1,2-dihydro-1,8-naphthyridine-3-carboxamide], the IC50 was found to be 413 nM in experiment [1] (setting [3]) and 3.7 nM in experiment [2] (setting [4]).
As to `CC(C)(C)NC(=O)c1c(O)c2cc(-c3ccc(F)cc3)cnc2n(CCN2CCOCC2)c1=O` [Compound 118, N-(tert-butyl)-6-(4-fluorophenyl)-4-hydroxy-1-(2-morpholinoethyl)-2-oxo-1,2-dihydro-1,8-naphthyridine-3-carboxamide], the IC50 in experiment [1] (setting [6]) is above 1000 nM; in experiment [2], 100 to 999 nM.
As to `CC(NC(=O)c1cc2cc(-c3ccc(F)cc3)cnc2n(Cc2ncccn2)c1=O)c1ccc(F)cc1` (centres unmarked) [Compound 65, 6-(4-fluorophenyl)-N-(1-(4-fluorophenyl)ethyl)-2-oxo-1-(pyrimidin-2-ylmethyl)-1,2-dihydro-1,8-naphthyridine-3-carboxamide], the IC50 in experiment [1] (setting [6]) was above 1000 nM; in experiment [2], 100 to 999 nM.
For `CC12CC(NC(=O)c3c(O)c4cccnc4n(Cc4ccc(F)cc4)c3=O)(C1)C2` [Compound 141, 1-[(4-fluorophenyl)methyl]-4-hydroxy-N-(3-methyl-1-bicyclo[1.1.1]pentanyl)-2-oxo-1,8-naphthyridine-3-carboxamide] the same measures were above 1000 nM and 100 to 999 nM.
Consider `COc1ccc(-c2cnc3c(c2)c(O)c(C(=O)N[C@H]2CC[C@@H](C)CC2)c(=O)n3CCN2CCOCC2)cc1` [Compound 149, 4-hydroxy-6-(4-methoxyphenyl)-N-((1s,4S)-4-methylcyclohexyl)-1-(2-morpholinoethyl)-2-oxo-1,2-dihydro-1,8-naphthyridine-3-carboxamide], for which the IC50 in experiment [1] (setting [6]) is above 1000 nM; in experiment [2] (setting [5]) it was below 100 nM.
Regarding `COc1ccc(-c2cnc3c(c2)c(OC(C)C)c(C(=O)NC24CC(C2)C4)c(=O)n3CCN2CCOCC2)cc1` [Compound 180, N-(bicyclo[1.1.1]pentan-1-yl)-4-isopropoxy-6-(4-methoxyphenyl)-1-(2-morpholinoethyl)-2-oxo-1,2-dihydro-1,8-naphthyridine-3-carboxamide], in experiment [2] (setting [5]), the concentration for half-maximal inhibition (IC50) is above 1000 nM.
Still for that read-out and setting: next, `COc1c(C(=O)NC23CC(C2)C3)c(=O)n(CCN2CCOCC2)c2ncc(-c3ccc(F)cc3)cc12` [Compound 173, N-(bicyclo[1.1.1]pentan-1-yl)-6-(4-fluorophenyl)-4-methoxy-1-(2-morpholinoethyl)-2-oxo-1,2-dihydro-1,8-naphthyridine-3-carboxamide]: above 1000 nM; `O=C(NC12CC(C1)C2)c1c(O)c2cc(-c3ccc(F)cc3)cnc2n(CCN2CC3CC(C2)O3)c1=O` [Compound 165, 1-(2-(6-oxa-3-azabicyclo[3.1.1]heptan-3-yl)ethyl)-N-(bicyclo[1.1.1]pentan-1-yl)-6-(4-fluorophenyl)-4-hydroxy-2-oxo-1,2-dihydro-1,8-naphthyridine-3-carboxamide]: above 1000 nM.
Still for that read-out and setting: under `C[C@H](NC(=O)c1cc2cc(-c3ccc(OC(F)F)cn3)cnc2n(CCN2CCOCC2)c1=O)c1ccc(F)cc1` [Compound 49, (S)-6-(5-(difluoromethoxy)pyridin-2-yl)-N-(1-(4-fluorophenyl)ethyl)-1-(2-morpholinoethyl)-2-oxo-1,2-dihydro-1,8-naphthyridine-3-carboxamide] stands 100 to 999 nM.
Molecule `O=C(NC1CC2(CCC2)C1)c1cc2cc(-c3ccc(OC(F)F)cn3)cnc2n(Cc2ccc(F)cc2)c1=O` [Compound 43, 6-(5-(difluoromethoxy)pyridin-2-yl)-1-(4-fluorobenzyl)-2-oxo-N-(spiro[3.3]heptan-2-yl)-1,2-dihydro-1,8-naphthyridine-3-carboxamide] came in with an IC50 in experiment [2] of 100 to 999 nM.
For `O=C(NC12CC(C1)C2)c1c(O)c2cc(-c3ccc(F)cc3)cnc2n(CCN2C3COCC2C3)c1=O` [Compound 166, 1-(2-(3-oxa-6-azabicyclo[3.1.1]heptan-6-yl)ethyl)-N-(bicyclo[1.1.1]pentan-1-yl)-6-(4-fluorophenyl)-4-hydroxy-2-oxo-1,2-dihydro-1,8-naphthyridine-3-carboxamide], the IC50 in experiment [2] (setting [5]) was above 1000 nM.
On the same count and under the same terms, under `O=C(NC1CC2(CCC2)C1)c1c(O)c2cc(-c3ccccc3)cnc2n(CCN2CCOCC2)c1=O` [Compound 14, 4-hydroxy-1-(2-morpholinoethyl)-2-oxo-6-phenyl-N-(spiro[3.3]heptan-2-yl)-1,2-dihydro-1,8-naphthyridine-3-carboxamide] stands below 100 nM.
In experiment [2], `O=C(NC1CC2(CCC2)C1)c1c(O)c2cc(Br)cnc2n(CCN2CCOCC2)c1=O` [Compound 4, 6-bromo-4-hydroxy-1-(2-morpholinoethyl)-2-oxo-N-(spiro[3.3]heptan-2-yl)-1,2-dihydro-1,8-naphthyridine-3-carboxamide] showed an IC50 of 100 to 999 nM.
